Tests used:
Format in all cases: cell-based, Corynebacterium glutamicum
C. glutamicum ATCC 13032 = test: Comparison of metabolic activity after NH4-oAB and Na-oAB addition, batch cultivation in 1 L bioreactors (Example 3); conditions: for biomass accumulation after oAB addition: 40 mL of 500 g/L oAB stock solution at pH 7 added after 6.4 h and 23.6 h, FIG. 3
Description: FIG. 3: Influence of Na-oAB and NH4-oAB addition on oAB resistance during batch cultivation in 1 L scale with C. glutamicum ATCC 13032. Filled symbols: addition of 40 mL of 500 g/L oAB stock solution (oAB dissolved with NaOH at pH 7) after 6.4 h and 23.6 h. Open symbols: addition of 40 mL of 500 g/L oAB stock solution (oAB dissolved with NH4OH at pH 7) after 6.4 h and 23.6 h. Initial cultivation volume VL=1 L, temperature 30° C., pH=7 controlled with NH4OH (10 w % NH3), gassing rate with air=0.2 L/min, pO2 controlled at 30% air saturation by adjusting the stirrer speed between 200 and 1200 rpm.
The influence of NH4 was tested with C. glutamicum ATCC 13032 (without further genetic modifications, not modified by evolutionary engineering) using two 1 L bioreactors filled with sterile cultivation medium including the following initial concentrations: […], 5 g/L (NH4)2SO4, 1 g/L KH2PO4, 1 g/L K2HPO4, 0.25 g/L MgSO4.7 H2O, 0.01 g/L CaCl2.2 H2O, 2 mg/L biotin (vitamin B7), 0.03 g/L protocatechuic acid (3,4-Dihydroxybenzoic acid), 0.01 g/L MnSO4.H2O, 0.01 g/L FeSO4.7H2O, 1 mg/L ZnSO4.7H2O, 0.2 mg/L CuSO4.5H2O and 0.02 mg/L NiCl2.6H2O.
The preculture medium for the cultivation in shake flasks contained additionally 42 g/L MOPS buffer, 3.7 g/L brain heart infusion broth, 5 g/L urea (CH4N2O) and 20 g/L (NH4)2SO4 (instead of 5 g/L). The preculture was cultivated in 300 mL shake flasks with a liquid volume of 25 mL at a temperatur of 28° C. and a shaking frequency of 180 rpm until OD600>20 was reached.
During the fermentation the temperature was controlled at 30° C. and pH was kept constant at pH=7 by adding aqueous NH4OH solution (10 w % NH3). The gassing rate was adjusted to 0.2 L/min air and the dissolved oxygen tension was controlled at 30% air saturation by adjusting the stirrer speed between 200 rpm and 1200 rpm.
40 mL of a 500 g/L oAB stock solution (oAB dissolved with NaOH at pH 7) was added to reactor 1 after 6.4 h and 23.6 h (filled symbols) and 40 mL of a 500 g/L oAB stock solution (oAB dissolved with NH4OH at pH 7) was added after 6.4 h and 23.6 h to reactor 2 (open symbols)
From this it follows that the toxicity of oAB on C. glutamicum ATCC 13032 in presence of high Na+ concentrations is reduced compared to the toxicity in presence of high NH4^+ concentrations.

[1] = test system: C. glutamicum strain derived from ATCC 13032 by evolutionary engineering; test: Comparison of metabolic activity after NH4-oAB and Na-oAB addition, batch cultivation in 1 L bioreactors (Example 2); conditions: 40 mL of 500 g/L oAB stock solution at pH 7 added after 7 h and 24 h; FIG. 2
Description: FIG. 2: Influence of Na-oAB and NH4-oAB addition on oAB resistance during batch cultivation in 1 L scale with C. glutamicum ATCC 13032. Filled symbols: addition of 40 mL of […] stock solution (oAB dissolved with NaOH at pH 7) after 7 h and 24 h. Open symbols: addition of 40 mL of 500 g/L oAB stock solution (oAB dissolved with NH4OH at pH 7) after 7 h and 24 h. Both bioreactors: addition of 36 g/L glucose (added as stock solution) after 7.5 h and 24.5 h to prevent a glucose limitation. Initial cultivation volume VL=1 L, temperature 30° C., pH=7 controlled with NH4OH (10 w % NH3), gassing rate with air=0.2 L/min, pO2 controlled at 30% air saturation by adjusting the stirrer speed between 200 and 1200 rpm.
A C. glutamicum strain derived from ATCC 13032 was used to compare the metabolic activity after NH4-oAB and Na-oAB addition during the cultivation. This strain was derived from Corynebacterium glutamicum ATCC 13032 by evolutionary engineering in order to increase its resistance against oAB.
It was not further genetically modified. Thus it was not capable of oAB-production. For this purpose, two 1 L bioreactors were filled with sterile cultivation medium including the following initial concentrations: 20 g/L glucose, 5 g/L (NH4)2SO4, 1 g/L KH2PO4, 1 g/L K2HPO4, 0.25 g/L MgSO4.7 H2O, 0.01 g/L CaCl2.2 H2O, 2 mg/L biotin (vitamin B7), 0.03 g/L protocatechuic acid (3,4-Dihydroxybenzoic acid), 0.01 g/L MnSO4.H2O, 0.01 g/L FeSO4.7H2O, 1 mg/L ZnSO4.7H2O, 0.2 mg/L CuSO4.5H2O and 0.02 mg/L NiCl2.6H2O.
The preculture medium for the cultivation in shake flasks contained additionally 42 g/L MOPS buffer, 3.7 g/L brain heart infusion broth, 5 g/L urea (CH4N2O) and […] (instead of 5 g/L). The preculture was cultivated in 300 mL shake flasks with a liquid volume of 25 mL at a temperatur of 28° C. and a shaking frequency of 180 rpm until OD600>20 was reached.

[2] = test system: modified C. glutamicum production strain; test: Evaluation of the maximum tolerable oAB concentration, batch cultivation in 1 L bioreactor
Description: FIG. 1: Evaluation of the maximum tolerable oAB concentration during batch cultivation in a 1 L lab-scale bioreactor with a modified C. glutamicum production strain. Addition of 20 mL of a 500 g/L oAB stock solution (oAB dissolved with NaOH at pH 7) after 23 h and 39 h, 48 h (two times), 64 h (two times) and 71 h (two times) and addition of glucose solution after 40 h, 48 h, 63 h, 65 and 71.5 h to prevent a glucose limitation. Initial cultivation volume VL=1 L, temperature 30° C., pH=7 controlled by adding NH4OH (10 w % NH3) during cultivation, gassing rate with air=0.2 L/min, pO2 controlled at 30% air saturation by adjusting the stirrer speed between 200 and 1200 rpm.
The maximum tolerable oAB concentration in the presence of sodium ions in the medium was tested with a modified C. glutamicum production strain. This strain was derived from Corynebacterium glutamicum ATCC 13032 by evolutionary engineering in order to increase its resistance against oAB.
This strain was then genetically modified to make it capable of oAB-production. […]

[3] = according to FIG. 3, NH4+ as counter ion

Row | Structure (SMILES) | biomass accumulation after oAB addition (C. glutamicum ATCC 13032) | o-aminobenzoate concentration above which the metabolic activity of bacterial cells (OTR) is limited (C. glutamicum ATCC 13032; [3]) | o-aminobenzoate concentration at which cell growth (dry weight) stops (C. glutamicum ATCC 13032; [3]) [g/L] | OTR signal after oAB addition [1] | biomass concentration after oAB addition [1] | oAB concentration at which growth (increase in biomass concentration) was still observed ([2]; oAB added stepwise as sodium salt (dissolved with NaOH at pH 7), pH 7 controlled with NH4OH, 30° C.) [g/L] | oAB concentration resulting in a decrease of the metabolic activity (declining OTR signal) and no further increase in biomass ([2]; oAB increased from 80 g/L to 100 g/L after 71 h, added as sodium salt, pH 7, 30° C.) [g/L]
1 | N.Nc1ccccc1C(=O)O [NH4-oAB] | growth inhibition after 24 h | more than 25 g/L | > 50 | constant OTR signal | reduced biomass accumulation |  | 
2 | Nc1ccccc1C(=O)[O-].[Na+] [Na-oAB] | biomass accumulation continued |  |  | continued to increase | continued to increase |  | 
3 | Nc1ccccc1C(=O)O [oAB, 2-aminobenzoic acid] |  |  |  |  |  | 80 | 100
